# Laboratory results published in ChEMBL document CHEMBL1201862, “PubChem BioAssay data set” (2004).
# Where a name gives a salt, the structure may show the parent alone.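 Grown in 96-well plates, cells were treated for 48 hours with each compound at five concentrations. Insufficient inhibition: endpoint recorded as highest concentration tested. At the GI50, growth is halved.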 Activity calls are given as the source filed them. No stated cut-off is given here; in the data, active = GI50 up to about 1.1 µM and inactive = higher. Non-standard residues stand in square brackets, D forms with d. Residues, ends and D or L forms follow the SMILES beside them. ξ: configuration not given here. *: point of attachment. dThr(3ξ) = CC(O)[C@@H](N)C(=O)O; dNMeL = CN[C@H](CC(C)C)C(=O)O; OBn = c1ccc(CO*)cc1; ξLac = CC(O)C(=O)O
# Columns and labels:
# Test in all cases: NCI tumour cell line growth inhibition, 48 h
# A498 = tested on: A498
# A549 = tested on: A549
# CAKI-1 = tested on: CAKI-1
# CCRF-CEM = tested on: CCRF-CEM
# COLO 205 = tested on: COLO 205
# EKVX = tested on: EKVX
# HCT-15 = tested on: HCT-15
# IGROV-1 = tested on: IGROV-1
# KM12 = tested on: KM12
# MDA-N = tested on: MDA-N
# OVCAR-3 = tested on: OVCAR-3
# OVCAR-4 = tested on: OVCAR-4
# OVCAR-5 = tested on: OVCAR-5
# PC-3 = tested on: PC-3
# RXF 393 = tested on: RXF 393
# SF-268 = tested on: SF-268
# SF-295 = tested on: SF-295
# SN12C = tested on: SN12C
# SNB-75 = tested on: SNB-75
# UO-31 = tested on: UO-31
Structure (SMILES),GI50 (A498),GI50 (A549),GI50 (CAKI-1),GI50 (CCRF-CEM),GI50 (COLO 205),GI50 (EKVX),GI50 (HCT-15) [µM],GI50 (IGROV-1),GI50 (KM12),GI50 (MDA-N),GI50 (OVCAR-3),GI50 (OVCAR-4),GI50 (OVCAR-5),GI50 (PC-3),GI50 (RXF 393),GI50 (SF-268),GI50 (SF-295),GI50 (SN12C),GI50 (SNB-75),GI50 (UO-31)
O=C1C(c2c(O)[nH]c3ccc(I)cc23)=Nc2ccccc21,1.9 µM (inactive),3.84 µM (inactive),7.06 µM (inactive),39.6 µM (inactive),11.6 µM (inactive),4.67 µM (inactive),7.21,0.0873 µM (active),5.24 µM (inactive),6.68 µM (inactive),5.71 µM (inactive),4.06 µM (inactive),11.8 µM (inactive),2.94 µM (inactive),3.24 µM (inactive),4.07 µM (inactive),4.88 µM (inactive),9.25 µM (inactive),4.23 µM (inactive),4.02 µM (inactive)
COc1cc2[nH]c(=O)c3cc(-c4ccccc4)cc4c(Cl)nc(c1OC)c2c43,> 100 µM (inactive),23.2 µM (inactive),24.4 µM (inactive),4.88 µM (inactive),11.6 µM (inactive),14 µM (inactive),9.55,19.1 µM (inactive),20 µM (inactive),3.86 µM (inactive),3.79 µM (inactive),9.27 µM (inactive),49.4 µM (inactive),4.86 µM (inactive),23.3 µM (inactive),16.1 µM (inactive),> 49.4 µM (inactive),11.7 µM (inactive),> 39.4 µM (inactive),19.2 µM (inactive)
CN1CCN(c2ccc(-n3cc(C(=O)O)c(=O)c4cc(F)c(N5CCN(C)CC5)cc43)nc2)CC1,> 100 µM (inactive),> 100 µM (inactive),> 100 µM (inactive),> 100 µM (inactive),25.4 µM (inactive),> 100 µM (inactive),> 100,> 100 µM (inactive),33.6 µM (inactive),> 100 µM (inactive),> 100 µM (inactive),> 100 µM (inactive),> 100 µM (inactive),> 100 µM (inactive),> 100 µM (inactive),> 100 µM (inactive),> 100 µM (inactive),> 100 µM (inactive),> 100 µM (inactive),> 100 µM (inactive)
COc1ccc(C(F)(F)F)cc1NC(=O)O/N=C(/Cl)C(C)C,28.9 µM (inactive),20.8 µM (inactive),1.77 µM (inactive),2.24 µM (inactive),2.03 µM (inactive),17.7 µM (inactive),5.18,17.9 µM (inactive),26.3 µM (inactive),16.3 µM (inactive),19.3 µM (inactive),19.1 µM (inactive),20.6 µM (inactive),18.8 µM (inactive),19.6 µM (inactive),23.8 µM (inactive),> 47.1 µM (inactive),16.2 µM (inactive),16.8 µM (inactive),18.5 µM (inactive)
O=[N+]([O-])c1ccc(/C=N/n2c(CO)nc3ccccc32)o1,17.9 µM (inactive),10.5 µM (inactive),9.68 µM (inactive),3.78 µM (inactive),3.1 µM (inactive),11.3 µM (inactive),2.84,0.993 µM (active),3.11 µM (inactive),3.33 µM (inactive),2.22 µM (inactive),7.1 µM (inactive),11.9 µM (inactive),10.2 µM (inactive),5.07 µM (inactive),10.4 µM (inactive),11.7 µM (inactive),5.35 µM (inactive),24.6 µM (inactive),8.32 µM (inactive)
CC(=O)OC(C)[C@@H](NC(=O)[C@@H](CC(C)C)N(C)C(=O)[C@@H]1CCCN1C(=O)C(C)O)C(=O)OCc1ccccc1 (stereo not given in full) (H-[ξLac]P[dNMeL][dThr(3ξ)](Ac)-OBn),> 100 µM (inactive),> 100 µM (inactive),> 100 µM (inactive),> 100 µM (inactive),> 100 µM (inactive),> 100 µM (inactive),> 100,> 100 µM (inactive),> 100 µM (inactive),> 100 µM (inactive),> 100 µM (inactive),62.4 µM (inactive),> 100 µM (inactive),> 100 µM (inactive),> 100 µM (inactive),> 100 µM (inactive),> 100 µM (inactive),> 100 µM (inactive),81.7 µM (inactive),> 100 µM (inactive)
OC(CNc1ccccn1)c1ccccc1 (stereo not given) [PHENYRAMIDOL HYDROCHLORIDE],> 100 µM (inactive),> 100 µM (inactive),> 100 µM (inactive),> 100 µM (inactive),> 100 µM (inactive),> 100 µM (inactive),> 100,> 100 µM (inactive),> 100 µM (inactive),> 100 µM (inactive),> 100 µM (inactive),> 100 µM (inactive),> 100 µM (inactive),> 100 µM (inactive),> 100 µM (inactive),> 100 µM (inactive),> 100 µM (inactive),63.1 µM (inactive),> 100 µM (inactive),> 100 µM (inactive)
